Experimental data published in ChEMBL document CHEMBL5360581, “Discovery of a novel dual functional phenylpyrazole-styryl hybrid that induces apoptotic and autophagic cell death in bladder cancer cells” (Eur J Med Chem, 2023).
Active and inactive are the calls of the source. The calls are words filed in the database; no cut-off is given here.

Tests used:
[1] = test system: EJ-28; experiment: Induction of cell cycle arrest in human EJ-28 cells assessed as accumulation of cells at sub-G0/G1 phase at 1.25 uM incubated for 48 hrs by propidium iodide staining based flow cytometry (reference value: 48%); assay type: functional
[2] = test system: EJ-28; experiment: Induction of apoptosis in human EJ-28 cells assessed as upregulation of NOXA expression incubated for 24 hrs by Western blotting analysis; assay type: functional, cell-based
[3] = test system: EJ-28; experiment: Induction of apoptosis in human EJ-28 cells assessed as upregulation of Bax expression incubated for 24 hrs by Western blotting analysis; assay type: functional, cell-based
[4] = Selectivity index, ratio of IC50 for cytotoxicity against human NHDF cells to IC50 for cytotoxicity against human SW620 cells
[5] = test system: HEK293; experiment: Cytotoxicity against HEK293 cells expressing EGFR assessed as inhibition of cell growth incubated for 24 to 72 hrs; assay type: toxicity, cell-based; conditions: human, time 24-72 hrs
[6] = test system: EJ-28; experiment: Induction of autophagy in human EJ-28 cells assessed as upregulation of Beclin-1 expression at 5 to 12.5 uM incubated for 24 to 72 hrs by Western blot analysis; assay type: functional, cell-based; conditions: dose 5-12.5 µM, time 24-72 hrs
[7] = test system: EJ-28; experiment: Induction of autophagy in human EJ-28 cells assessed as upregulation of LC3B-I expression at 5 to 12.5 uM incubated for 24 to 72 hrs by Western blot analysis; assay type: functional, cell-based; conditions: dose 5-12.5 µM, time 24-72 hrs
[8] = Cytotoxicity against human SV-HUC-1 cells assessed as reduction in cell viability at 7.5 uM incubated for 72 hrs by MTT assay; assay type: toxicity, cell-based; conditions: sv-huc-1, 72 h
[9] = test system: EJ-28; experiment: Induction of cell cycle arrest in human EJ-28 cells assessed as accumulation of cells at G2/M phase at 2.5 uM incubated for 48 hrs by propidium iodide staining based flow cytometry (reference value: 20%); assay type: functional
[10] = test system: EJ-28; experiment: Induction of cell cycle arrest in human EJ-28 cells assessed as accumulation of cells at sub-G0/G1 phase at 2.5 uM incubated for 48 hrs by propidium iodide staining based flow cytometry (reference value: 48%); assay type: functional
[11] = test system: EJ-28; experiment: Inhibition of colony formation in human EJ-28 cells at 1.25 uM incubated for 10 days by crystal violet staining based assay; assay type: functional, cell-based; conditions: time 10.0 day

## O=[N+]([O-])c1cccc(/C=C/c2cc(-c3cc(Cl)ccc3O)n(-c3ccccc3)n2)c1
[1]
  Activity: 53%
[2]
  Activity: Active
[3]
  Activity: inactive
[4]
  Ratio IC50: 2.6
[5]
  Activity: Non-Toxic
[6]
  Activity: inactive
[7]
  Activity: Active
[8]
  Activity: Non-Toxic
[9]
  Activity: 15%
[10]
  Activity: 57%
[11]
  inhibition: inactive
